# Source: BigSolDB 2.1
smiles,measurement,setting,value
CN(C)/C=C/C(=O)c1cccnc1,solubility (mole fraction),"in 1,4-dioxane, 288.15 K",0.0331
same,solubility (mole fraction),"in 1,4-dioxane, 293.15 K",0.0357
same,solubility (mole fraction),"in 1,4-dioxane, 298.15 K",0.0388
same,solubility (mole fraction),"in 1,4-dioxane, 303.15 K",0.0427
same,solubility (mole fraction),"in 1,4-dioxane, 308.15 K",0.048
same,solubility (mole fraction),"in 1,4-dioxane, 313.15 K",0.054
same,solubility (mole fraction),"in 1,4-dioxane, 318.15 K",0.061
same,solubility (mole fraction),"in 1,4-dioxane, 323.15 K",0.0692
same,solubility (mole fraction),"in 1,4-dioxane, 328.15 K",0.0779
same,solubility (mole fraction),"in DMF, 278.15 K",0.0897
same,solubility (mole fraction),"in DMF, 283.15 K",0.112
same,solubility (mole fraction),"in DMF, 288.15 K",0.142
same,solubility (mole fraction),"in DMF, 293.15 K",0.175
same,solubility (mole fraction),"in DMF, 298.15 K",0.209
same,solubility (mole fraction),"in DMF, 303.15 K",0.249
same,solubility (mole fraction),"in DMF, 308.15 K",0.293
same,solubility (mole fraction),"in DMF, 313.15 K",0.348
same,solubility (mole fraction),"in DMF, 318.15 K",0.408
same,solubility (mole fraction),"in DMF, 323.15 K",0.482
same,solubility (mole fraction),"in DMF, 328.15 K",0.588
same,solubility (mole fraction),"in THF, 278.15 K",0.021
same,solubility (mole fraction),"in THF, 283.15 K",0.0216
same,solubility (mole fraction),"in THF, 288.15 K",0.0225
same,solubility (mole fraction),"in THF, 293.15 K",0.0239
same,solubility (mole fraction),"in THF, 298.15 K",0.0257
same,solubility (mole fraction),"in THF, 303.15 K",0.0279
same,solubility (mole fraction),"in THF, 308.15 K",0.0304
same,solubility (mole fraction),"in THF, 313.15 K",0.033
same,solubility (mole fraction),"in THF, 318.15 K",0.0358
same,solubility (mole fraction),"in THF, 323.15 K",0.0391
same,solubility (mole fraction),"in THF, 328.15 K",0.0428
same,solubility (mole fraction),"in acetone, 278.15 K",0.00872
same,solubility (mole fraction),"in acetone, 283.15 K",0.00917
same,solubility (mole fraction),"in acetone, 288.15 K",0.00987
same,solubility (mole fraction),"in acetone, 293.15 K",0.0108
same,solubility (mole fraction),"in acetone, 298.15 K",0.0117
same,solubility (mole fraction),"in acetone, 303.15 K",0.0127
same,solubility (mole fraction),"in acetone, 308.15 K",0.0138
same,solubility (mole fraction),"in acetone, 313.15 K",0.0149
same,solubility (mole fraction),"in acetone, 318.15 K",0.0164
same,solubility (mole fraction),"in acetone, 323.15 K",0.0178
same,solubility (mole fraction),"in acetone, 328.15 K",0.0197
same,solubility (mole fraction),"in cyclohexane, 283.15 K",0.00098
same,solubility (mole fraction),"in cyclohexane, 288.15 K",0.00114
same,solubility (mole fraction),"in cyclohexane, 293.15 K",0.00147
same,solubility (mole fraction),"in cyclohexane, 298.15 K",0.00183
same,solubility (mole fraction),"in cyclohexane, 303.15 K",0.00228
same,solubility (mole fraction),"in cyclohexane, 308.15 K",0.00284
same,solubility (mole fraction),"in cyclohexane, 313.15 K",0.0034
same,solubility (mole fraction),"in cyclohexane, 318.15 K",0.00408
same,solubility (mole fraction),"in cyclohexane, 323.15 K",0.00493
same,solubility (mole fraction),"in cyclohexane, 328.15 K",0.0061
same,solubility (mole fraction),"in ethyl acetate, 278.15 K",0.0131
same,solubility (mole fraction),"in ethyl acetate, 283.15 K",0.014
same,solubility (mole fraction),"in ethyl acetate, 288.15 K",0.0152
same,solubility (mole fraction),"in ethyl acetate, 293.15 K",0.0163
same,solubility (mole fraction),"in ethyl acetate, 298.15 K",0.018
same,solubility (mole fraction),"in ethyl acetate, 303.15 K",0.02
same,solubility (mole fraction),"in ethyl acetate, 308.15 K",0.0228
same,solubility (mole fraction),"in ethyl acetate, 313.15 K",0.0259
same,solubility (mole fraction),"in ethyl acetate, 318.15 K",0.0295
same,solubility (mole fraction),"in ethyl acetate, 323.15 K",0.0338
same,solubility (mole fraction),"in ethyl acetate, 328.15 K",0.0382
same,solubility (mole fraction),"in methanol, 278.15 K",0.0255
same,solubility (mole fraction),"in methanol, 283.15 K",0.0278
same,solubility (mole fraction),"in methanol, 288.15 K",0.0304
same,solubility (mole fraction),"in methanol, 293.15 K",0.034
same,solubility (mole fraction),"in methanol, 298.15 K",0.0379
same,solubility (mole fraction),"in methanol, 303.15 K",0.0427
same,solubility (mole fraction),"in methanol, 308.15 K",0.0476
same,solubility (mole fraction),"in methanol, 313.15 K",0.0533
same,solubility (mole fraction),"in methanol, 318.15 K",0.0588
same,solubility (mole fraction),"in methanol, 323.15 K",0.0648
same,solubility (mole fraction),"in methanol, 328.15 K",0.0715
same,solubility (mole fraction),"in n-propanol, 278.15 K",0.0185
same,solubility (mole fraction),"in n-propanol, 283.15 K",0.0207
same,solubility (mole fraction),"in n-propanol, 288.15 K",0.0233
same,solubility (mole fraction),"in n-propanol, 293.15 K",0.0261
same,solubility (mole fraction),"in n-propanol, 298.15 K",0.0298
same,solubility (mole fraction),"in n-propanol, 303.15 K",0.0331
same,solubility (mole fraction),"in n-propanol, 308.15 K",0.0371
same,solubility (mole fraction),"in n-propanol, 313.15 K",0.0408
same,solubility (mole fraction),"in n-propanol, 318.15 K",0.0465
same,solubility (mole fraction),"in n-propanol, 323.15 K",0.0529
same,solubility (mole fraction),"in n-propanol, 328.15 K",0.0604
